# Test results reported in patent US5336759A, “Biologically active peptide derived from frog (frog CNP)” (priority 1990, dated 1994).
# Like-named read-outs stand apart in the source and are kept apart here. Bridge positions count the residues as written; N and C are the ends. Ends that are not written are not given here. Peptide text beside a SMILES is read from it.
# Key:
# chicken rectum = system: chicken rectum
# Procedure: Relaxant activity in chicken rectum was measured in accordance with the method of […] and Currie ([…]. and Matsuo, H., Biochem. Biophys. Res. Commun., 118, 131-139, 1984; Currie, […]., Cole, […]. and Needleman, P. Science, 221, 71-73, 1983). The values are averages of six repeats. […] Although fCNP lacked the tail sequence at the C-terminal which had been considered to be important for analog peptides in displaying biological activities such as diuretic action (Watanabe, T. X., Noda, Y., Chino […]. and Imai, M. Eur. J. […] Relative activity is defined as the activity of equimolar amount of peptides when the activity of α-hANP is 100.
# anesthetized rats [1] = assay: Diuretic and natriuretic action in anesthetized rats; type: in vivo, rat; details: for excretion Cl- / excretion K+ / excretion Na+ / excretion urine: urine collected 15 min before and after injection, Means±S.E.M., three rats
# Procedure: (§1) Diuretic action of fCNP was measured in accordance with the method described in Kangawa et al and Sudoh et al (Kangawa, K. et al., Biochem. Biophys. Res. Commun., 118, 131-139, 1984; Sudoh, T., Kangawa, K., Minamino, N. and Matsuo, H. Nature, 332, 78-81 , 1988). Male SD rats (weight 300-400 g) were anesthetized by intraperitoneally receiving 50 mg/kg pentobarbital, and a tracheal cannula (PE-240, Cray Adams) was provided to secure an airway. A cannula for measuring the blood pressure (PE-50) was inserted into one of the femoral arteries, and Ringer solution was injected through a cannula (PE-10) inserted into the femoral venous, at a constant rate of 1.8 ml/hr. Urine was collected into a test tube through a bladder cannula of silastic tube (inside diameter 0.02 inch, outside diameter 0.037 inch, Dow Corning). The collection of urine was carried out for 15 min before the administration of the peptides, at 5 min intervals after the administration till 15 min, and then at appropriate time intervals. The effect of the peptides was measured by comparing the amount of the urine samples and the concentration of the electrolyte in the urine samples, as well as by the change of the blood pressure.
# In the above assay, a predetermined amount of fCNP was dissolved in 0.1N acetic acid, and neutralized with one tenth volume of 1.3M Tris solution. Then, the solution was diluted with 50 μl of a sterile physiological water, and administered through the cervical vein.
# In Table 3, diuretic and natriuretic responses are shown in terms of the amount of the urine, the percentages in the decreases of the excretion of Na^+, K^+ and Cl^- (Means±S.E.M.), in which urine samples were collected separately over 15 min before and after the intravenous injection of the peptides to anesthetized rats. Three rats were used for each peptide.
# anesthetized rats [2] = assay: Vasodepressor action (blood pressure) in anesthetized rats; type: in vivo, rat; set-up: decrease of blood pressure at the contract phase of heart: unit not given here
# Procedure: as §1, with “Kangawa” left out, “([…].” for “(Kangawa, K.”, “[…].,” for “T., Kangawa, K.,”, “pressure. In the above assay, a predetermined amount of fCNP was dissolved in 0.1N acetic acid, and neutralized with one tenth volume of 1.3M Tris solution. […]” for “pressure.”
# [3] = relaxant activity of equimolar amount of peptide, activity of α-hANP = 100, averages of six repeats
compound,measurement,setting,value
CC[C@H](C)[C@@H]1NC(=O)[C@H](CCCNC(=N)N)NC(=O)[C@H](CC(=O)O)NC(=O)[C@H](CC(C)C)NC(=O)[C@H](CCCCN)NC(=O)[C@H](C(C)C)NC(=O)CNC(=O)[C@H](Cc2ccccc2)NC(=O)[C@@H](NC(=O)CNC(=O)[C@H](CCCNC(=N)N)NC(=O)[C@H](CO)NC(=O)[C@H](Cc2ccc(O)cc2)NC(=O)CN)CSSC[C@@H](C(=O)O)NC(=O)CNC(=O)[C@H](CC(C)C)NC(=O)CNC(=O)[C@H](CO)NC(=O)[C@H](Cc2ccccc2)NC(=O)[C@H](C)NC(=O)CNC1=O [fCNP] (H-GYSRGCFGVKLDRIGAFSGLGC-OH; disulfide 6-22),relative activity,chicken rectum,321
same,relaxant activity in chicken rectum (in words),chicken rectum,strong relaxant activity which was comparable to pCNP
same,relaxant activity in chicken rectum (in words),chicken rectum; listed as synthetic fCNP,positive relaxant activity
same,"relaxant activity, times higher than fANP-21",chicken rectum; relative to fANP-21,~7 times
same,"relaxant activity, times higher than α-hANP",chicken rectum; relative to α-hANP,about 3 times
same,excretion Cl-,anesthetized rats [1]; 30 μg/kg intravenous,193 ± 50%
same,excretion K+,anesthetized rats [1]; 30 μg/kg intravenous,163 ± 54%
same,excretion Na+,anesthetized rats [1]; 30 μg/kg intravenous,184 ± 26%
same,excretion urine,anesthetized rats [1]; 30 μg/kg intravenous,192 ± 51%
same,excretion Cl-,anesthetized rats [1]; 100 μg/kg intravenous,251 ± 43%
same,excretion K+,anesthetized rats [1]; 100 μg/kg intravenous,217 ± 58%
same,excretion Na+,anesthetized rats [1]; 100 μg/kg intravenous,344 ± 36%
same,excretion urine,anesthetized rats [1]; 100 μg/kg intravenous,315 ± 24%
same,excretion Cl-,anesthetized rats [1]; 300 μg/kg intravenous,369 ± 6%
same,excretion K+,anesthetized rats [1]; 300 μg/kg intravenous,210 ± 33%
same,excretion Na+,anesthetized rats [1]; 300 μg/kg intravenous,428 ± 29%
same,excretion urine,anesthetized rats [1]; 300 μg/kg intravenous,410 ± 27%
same,diuretic and natriuretic actions compared to that of α-hANP,"anesthetized rats [1]; ratio to α-hANP, anesthetized rats",about 1/100
same,decrease of blood pressure at the contract phase of heart,"anesthetized rats [2]; 10 nmol of fCNP, over a period of 30 min, typical experiment",25-30
same,vasodepressor action (in words),anesthetized rats [2]; anesthetized rats,weak vasodepressor action
"pBNP-26: diuretic peptide; B-type (brain) natriuretic peptide (DSGCFGRRLDRIGSLSGLGCNVLRRY; ends and bridges not checked; cysteine pairing not given here; UniProt P07634 106-131, looked up) [reference compound]",relative activity,chicken rectum; [3],270
"α-hANP: A-type (atrial) natriuretic peptide used as reference, activity set to 100 (SLRRSSCFGGRMDRIGAQSGLGCNSFRY; ends and bridges not checked; cysteine pairing not given here; UniProt P01160 124-151, looked up) [reference compound]",relative activity,chicken rectum; [3],100
same,excretion Cl-,anesthetized rats [1]; 3.0 μg/kg intravenous,445 ± 67%
same,excretion K+,anesthetized rats [1]; 3.0 μg/kg intravenous,291 ± 19%
same,excretion Na+,anesthetized rats [1]; 3.0 μg/kg intravenous,572 ± 84%
same,excretion urine,anesthetized rats [1]; 3.0 μg/kg intravenous,461 ± 51%
